Results reported in the supplement of paper PMC13380429.

Assays:
[1] = tested on: A549-ACE2; experiment: drug-induced phospholipidosis relative to tamoxifen; higher = more phospholipidosis
[2] = tested on: A549-ACE2 infected with SARS-CoV-2; experiment: cell count relative to DMSO; higher = less toxic; details: 24 h
[3] = tested on: A549-ACE2 infected with SARS-CoV-2; experiment: morphology score (similarity to uninfected cells); higher = more like uninfected cells; details: 24 h
[4] = tested on: A549-ACE2 infected with SARS-CoV-2; experiment: SARS-CoV-2 infection rate relative to DMSO; higher = more infection; details: 24 h
[5] = tested on: Vero E6; experiment: drug sensitivity score (DSS) for viability; higher = more toxic; extreme values may be limits of the assay; details: 72 h
[6] = tested on: Calu-3; experiment: as above; details: 72 h
[7] = tested on: U2OS; experiment: as above; details: 72 h
[8] = tested on: Caco-2; experiment: as above; details: 72 h
[9] = tested on: HepG2; experiment: as above; details: 72 h
[10] = tested on: Vero E6; experiment: cell viability relative to DMSO; higher = less toxic; details: 72 h
[11] = tested on: Calu-3; experiment: as above; details: 72 h
[12] = tested on: U2OS; experiment: as above; details: 72 h
[13] = tested on: Caco-2; experiment: as above; details: 72 h
[14] = tested on: HepG2; experiment: as above; details: 72 h
[15] = tested on: Vero E6; experiment: relative viability EC50 (midpoint between 100% and the lowest measured viability); higher = less toxic; details: 72 h
[16] = tested on: Calu-3; experiment: as above; details: 72 h
[17] = tested on: U2OS; experiment: as above; details: 72 h
[18] = tested on: Caco-2; experiment: as above; details: 72 h
[19] = tested on: HepG2; experiment: as above; details: 72 h
[20] = tested on: A549-ACE2; experiment: phospholipidosis EC50; higher = less potent phospholipidosis inducer

C[C@H]1CCC/C=C/[C@@H]2C[C@H](O)C[C@H]2[C@H](O)/C=C/C(=O)O1 [brefeldin-A]
[1], 24 h
Details | drug-induced phospholipidosis [%]
0.3 µM | -4.02
0.833333 µM | -5.26
3.33333 µM | -7.24
10 µM | -7

Details | SARS-CoV-2 infection rate, [4] [%] | cell count, [2] [%] | cell viability, [10] [%] | cell viability, [11] [%] | cell viability, [12] [%] | cell viability, [13] [%] | cell viability, [14] [%] | morphology score, [3]
1 nM | – | – | 95.3 | 108 | 99.5 | 96.6 | 95.6 | –
10 nM | – | – | 101 | 97.1 | 99.3 | 89.7 | 96.6 | –
0.1 µM | 33 | 108 | – | – | – | – | – | 0.73
100 nM | – | – | 28.4 | 32.3 | 22.8 | 71.9 | 21.9 | –
0.3 µM | 42 | 52 | – | – | – | – | – | 0.14
1 µM | 16 | 38 | – | – | – | – | – | 0.32
1000 nM | – | – | 3.5 | 15.4 | 0.2 | 26.8 | 14.2 | –
3 µM | 30 | 35 | – | – | – | – | – | 0.26
10000 nM | – | – | 3.3 | 10.7 | 0.1 | 28.8 | 14.6 | –

Details | drug sensitivity score | relative viability EC50 [nM]
[5] | 25.7 | –
[6] | 24.5 | –
[7] | 26.8 | –
[8] | 16.3 | –
[9] | 25.6 | –
[15] | – | 66
[16] | – | 55.5
[17] | – | 61.2
[18] | – | 130
[19] | – | 37.9

O=S(=O)(c1cccc2cnccc12)N1CCCNCC1 [fasudil]
[3]
Details | morphology score
0.3 µM | 0.21
3 µM | 0.17
10 µM | 0.3
30 µM | 0.09

Details | drug sensitivity score
[5] | 0
[6] | 0
[7] | 0
[8] | 0
[9] | 0.7

CNCCC(Oc1ccc(C(F)(F)F)cc1)c1ccccc1 (centres undefined) [fluoxetine]
Details | morphology score, 0.3 µM | morphology score, 3 µM | morphology score, 10 µM | morphology score, 30 µM | phospholipidosis EC50, 24 h [µM] | phospholipidosis EC50, 48 h [µM] | phospholipidosis EC50, 72 h [µM]
[3] | 0.06 | 0.65 | 0.87 | 0.74 | – | – | –
[20] | – | – | – | – | 7.05 | 7.62 | 7.61

Details | drug sensitivity score
[5] | 0.2
[6] | 0.3
[7] | 0
[9] | 1.6

COc1ccc2c(C)nc(Nc3nc(C)c(C)c(O)n3)nc2c1 [madrasin]
drug-induced phospholipidosis [%], [1]
Details | 0.3 µM | 0.833333 µM | 3.33333 µM | 6.66667 µM | 10 µM | 30 µM
24 h | 2.49 | -0.05 | -3.35 | -1.32 | 1.34 | 56
48 h | 3.81 | -2.33 | -1.09 | 0.46 | 1.75 | –
72 h | 0.061 | -7.49 | 0.0944 | -0.243 | 1.1 | –

Details | SARS-CoV-2 infection rate, [4] [%] | cell count, [2] [%] | cell viability, [10] [%] | cell viability, [11] [%] | cell viability, [12] [%] | cell viability, [13] [%] | cell viability, [14] [%] | morphology score, [3]
1 nM | – | – | 82.8 | 94.7 | 98.6 | 105 | 89.9 | –
10 nM | – | – | 99.1 | 84 | 98.1 | 99.2 | 95.4 | –
100 nM | – | – | 91 | 97 | 102 | 119 | 90.9 | –
0.3 µM | 90 | 102 | – | – | – | – | – | 0.29
1000 nM | – | – | 98.1 | 108 | 98.8 | 101 | 92.7 | –
3 µM | 88 | 105 | – | – | – | – | – | 0.36
10 µM | 96 | 102 | – | – | – | – | – | 0.21
10000 nM | – | – | 111 | 94.6 | 97 | 98.3 | 93.5 | –
30 µM | 1 | 95 | – | – | – | – | – | 0.75

Details | drug sensitivity score | relative viability EC50 [nM]
[5] | 0 | –
[6] | 0 | –
[7] | 0 | –
[8] | 0 | –
[9] | 0 | –
[15] | – | > 10000
[16] | – | > 10000
[17] | – | > 10000
[18] | – | > 10000
[19] | – | > 10000
